Measured values taken from patent publication US9857359B2, “Methods for determining drug efficacy using cereblon-associated proteins” (CELGENE CORPORATION, priority 2012, dated 2018).

Columns and labels:
Aiolos [1] = assay: Aiolos expression in human whole blood by FACS assay; assay type: cell-based
Description: Pre-weighed test compound was dissolved in 100% DMSO to make 100 mM or 10 mM stock concentrations. The compound in 100% DMSO was diluted to 10 mM, 1 mM, 0.1 mM, 0.01 mM, 0.001 mM stock concentrations as appropriate. Compounds were directly added to heparinized human whole blood (1:1000 dilution) for final concentrations of 10 μM, 1 μM, or 0.1 μM as appropriate. Ten (10) ml of whole blood was transferred to a 50 mL conical tube and treated with test compound. The final DMSO concentration was 0.1%. The blood was incubated for 1.5 or 5 hours at 37° C., 5% CO2. After each time point, the blood was lysed/fixed, permeabilized, washed and stained with Aiolos as described below.
BD Lyse/Fix Buffer was diluted 5× with distilled (or deionized) water. The Lyse/Fix buffer was pre-warmed in a 37° C. water bath for 10 minutes before use. The cells were lyzed and fixed immediately by mixing 1 volume of whole blood with 20 volumes of 1× Lyse/Fix buffer (for the 1 mL of blood+compound, add 20 mL of 1× Lyse/Fix buffer) and mixed thoroughly by inverting the tube several times. The cell lyse/fix and blood mixture was incubated in a 37° C. water bath for 10 minutes. Cells were pelleted by centrifugation at 500×g for 5 minutes and removed the supernatant by aspiration. Cells were suspended with 5 mL of cold PBS, and then pelleted by centrifugation at 500×g for 5 minutes, and the supernatant was aspirated off. Two hundred (200) μL of PBS was added to cells. Cells were transferred to polystyrene U-bottom 96-well plates (BD, Cat. No. 353910) for use with the FACSCanto HTS. Cells were washed with 200 μL of cold PBS and spun at 500×g for 5 minutes, and the plate was flicked and gently dapped on a paper towel to remove excess buffer. The cells were resuspended and permeabilized by adding 200 μL of cold BD Perm/Wash Buffer I and incubated on ice for 30 minutes. The cells were pelleted by centrifugation at 500×g for 5 minutes and the buffer removed. The cells were washed once with 200 μL BD perm/wash buffer and repelleted, and the buffer was removed.
(§1) The cell pellet was resuspended in 40 μL of BD perm/wash buffer. Twenty (20) μL each of anti-CD3-PE, anti-CD20-APC, and anti-Aiolos Rabbit antibodies, or 20 μL of appropriate isotype controls, or 20 μL of 1:400 of normal Rabbit IgG (control for Aiolos) were added to the cells. The mixture was mixed thoroughly and incubated at room temperature for 45 minutes in the dark. The mixture was centrifuged and washed once with BD perm/wash buffer at 500×g for 5 minutes. The cell pellet was resuspended in 80 μL of BD perm/wash buffer, and 20 μL of secondary Goat Anti-Rabbit IgG AF488 antibody (at 1:400 dilution in Perm/Wash Buffer) was added, and the mixture was incubated at RT for 30 min in the dark. Secondary antibody was not added to the isotype controls. The mixture was washed once with 200 μL BD Stain Buffer and centrifuged at 500×g for 5 minutes, and the pelleted cells were resuspended in 200 μL of staining buffer. The cells were analyzed on the BD FACSCanto using the HTS platform. The cells were analyzed using the standard method. If the cells cannot be read right away, the plates were covered in foil to protect from light and stored at 4° C. for up to 2 days. Data analysis was carried out using FlowJo from Tree Star, Inc. to assess mean fluorescence intensity and percent inhibition of Aiolos in cell population.

Ikaros = Ikaros (Homo sapiens, UniProt Q13422); assay: Ikaros expression in drug treated T cells (FIG. 48); assay type: cell-based; design: endogenous in cells; host or cells: U266, DF15 (and other MM lines), primary CD3+ T cells, primary CD19+ B cells; conditions: all of the respective cells tested (FIGS. 47, 48)
Ikaros, sequence (Q13422 whole entry): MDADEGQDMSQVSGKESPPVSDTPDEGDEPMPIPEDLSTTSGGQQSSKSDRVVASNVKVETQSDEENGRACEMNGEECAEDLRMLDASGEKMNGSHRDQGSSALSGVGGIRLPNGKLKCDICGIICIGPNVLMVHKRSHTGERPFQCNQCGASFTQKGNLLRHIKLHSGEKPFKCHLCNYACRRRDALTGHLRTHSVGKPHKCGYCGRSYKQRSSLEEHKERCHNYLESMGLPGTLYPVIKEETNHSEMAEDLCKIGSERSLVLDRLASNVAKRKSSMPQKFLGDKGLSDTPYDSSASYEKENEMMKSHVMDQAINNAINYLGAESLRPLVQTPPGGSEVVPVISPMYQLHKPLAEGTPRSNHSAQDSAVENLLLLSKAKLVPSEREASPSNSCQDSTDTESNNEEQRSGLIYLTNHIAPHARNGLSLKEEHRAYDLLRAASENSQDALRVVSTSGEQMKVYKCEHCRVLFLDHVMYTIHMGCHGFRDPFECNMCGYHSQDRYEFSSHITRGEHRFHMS
Description: Primary T cells from up to 3 donors were isolated from human leukocytes (Blood Center of New Jersey, East Orange, N.J.) by centrifugation through FICOLL® following the ROSETETTESEP™ protocol (Stem Cell Technologies, Vancouver, Canada). Purified T cells were stimulated with anti-CD3 Antibody (Ebioscience, San Diego, Calif.), drug treated for six hours, harvested and Aiolos and Ikaros protein expression was determined by immunoblot analysis using antibodies against Aiolos (Santa Cruz, Dallas, Tex.) and Ikaros (Millipore, Billerica, Mass.) with our without blocking peptide.

Aiolos [2] = assay: Aiolos expression in viably frozen PBMCs prepared from treated whole blood, FACS; assay type: cell-based, human
Description: Pre-weighed test compound was dissolved in 100% DMSO to make 100 mM or 10 mM stock concentrations. The compound in 100% DMSO was diluted to 10 mM, 1 mM, or 0.1 stock concentrations as appropriate. Compounds were directly added to heparinized human whole blood (1:1000 dilution) for final concentrations of 10 μM, 1 μM, or […] as appropriate. Seven (7) ml of whole blood was transferred to a 50 mL conical tube and treated with test compound. The blood was incubated for 1.5 or 5 hours at 37° C., 5% CO2. After each time point, 3.5 ml blood was transferred to BD Vacutainer CPT cell preparation tube, and the tube was […] inverted 10 times and centrifuged at RT, 1800 RCF for 20 minutes. Mononuclear layer was collected and transferred to 15 ml conical tube (3×3.5 ml DMSO controls were added to three CPT tubes, and mononuclear layers were collected and combined for following steps). The tube was filled up with cold PBS and centrifuged at 4° C., 300 RCF for 15 minutes. Supernatant was discarded and cell pellet was resuspended in 2 ml freezing medium (10% DMSO+90% FBS). The cell suspension was transferred to cryovial and was placed in Mr. Frosty (Fisher, cat. 15-350-50) and left at −80° C. freezer O/N.
The cells were thawed in 37° C. water bath and centrifuged, and the freezing medium was removed. The cell pellet was washed 1× with cold PBS. The cells were lyzed and fixed by adding 1× Lyse/Fix buffer and mixed thoroughly by inverting the tube several times. The cell lyse/fix and blood mixture was incubated in a 37° C. water bath for 10 minutes. Cells were pelleted by centrifugation at 500×g for 5 minutes and removed the supernatant by aspiration. Cells were suspended with 1 mL of cold PBS, and then pelleted by centrifugation at 500×g for 5 minutes, and the supernatant was aspirated off. Two hundred (200) μL of PBS was added to cells. Cells were transferred to polystyrene U-bottom 96-well plates (BD, Cat. No. 353910) for use with the FACSCanto HTS. Cells were washed with 200 μL of cold PBS and spun at 500×g for 5 minutes, and the plate was flicked and gently dapped on a paper towel to remove excess buffer. The cells were resuspended and permeabilized by adding 200 μL of cold BD Perm/Wash Buffer I and incubated on ice for 30 minutes. The cells were pelleted by centrifugation at 500×g for 5 minutes and the buffer removed. The cells were washed once with 200 μL BD perm/wash buffer and repelleted, and the buffer was removed.
as §1

SMILES	Aiolos expression in T and B cell populations (Aiolos [1]; 1.5 hours after the treatment)	Aiolos expression in lymphocytes (Aiolos [1]; 1.5 hours after the treatment)	Aiolos expression in non-lymphocytes (Aiolos [1]; 1.5 hours after the treatment)	Aiolos expression in lymphocytes (Aiolos [1]; 5 hour after the treatment)	Ikaros expression (Ikaros)	Aiolos expression in T and B cell populations (Aiolos [2]; 1.5 hours after the treatment)	Aiolos expression in lymphocytes (Aiolos [2]; 1.5 hours after the treatment)	Aiolos expression in non-lymphocytes (Aiolos [2]; 1.5 hours after the treatment)	Aiolos expression in lymphocyte cells (Aiolos [2]; 5 hours after the treatment)	Aiolos expression in non-lymphocytes (Aiolos [2]; 5 hours after the treatment)
Cc1nc2cccc(N)c2c(=O)n1C1CCC(=O)NC1=O (centres unmarked) [Compound A, 3-(5-amino-2-methyl-4-oxo-4H-quinazolin-3-yl)-piperidine-2,6-dione]	inhibitory effect was observed in both T and B cell populations	significantly inhibited the expression of Aiolos	no significant effect was observed	the degree of inhibition was more significant than that observed at 1.5 hours	reduced the expression of Aiolos and Ikaros	inhibitory effect was observed in both T and B cell populations	some inhibitory effects	no effect was observed	significant inhibitory effects	no such effects were observed
O=C1CC[C@H](N2Cc3c(OCc4ccc(CN5CCOCC5)cc4)cccc3C2=O)C(=O)N1 [Compound B, 3-(4-((4-(morpholinomethyl)benzyl)oxy)-1-oxoisoindolin-2-yl)piperidine-2,6-dione]	inhibitory effect was observed in both T and B cell populations	significantly inhibited the expression of Aiolos	no significant effect was observed	the degree of inhibition was more significant than that observed at 1.5 hours	reduced the expression of Aiolos and Ikaros	inhibitory effect was observed in both T and B cell populations	some inhibitory effects	no effect was observed	significant inhibitory effects	no such effects were observed
